The record followed here is patent publication US9340555B2, “Compounds as tyrosine kinase modulators” (Allergan, Inc., priority 2009, dated 2016).

The structures appear in SMILES notation.

Test [1] deals with human VEGF receptor (VEGFR-2) (Homo sapiens (Human), UniProt P35968). Put plainly: VEGFR2 Kinase Assay (Enzymic VEGFR2). The note with it: His-VEGFR-2 cytoplasmic domain, 3.6 µM ATP. The class given is biochemical. The method, then: VEGFR2 Kinase Assay The cytoplasmic domain of the human VEGF receptor (VEGFR-2) was expressed as a Histidine-tagged fusion protein following infection of insect cells using an His engineered baculovirus. […] Kinase assays were performed in 96 well microtiter plates that were coated overnight with 30 µg of poly-Glu-[…]:1) in 10 mM Phosphate Buffered Saline (PBS), pH 7.2-7.4. The plates were incubated with 1% BSA and then washed four times with PBS prior to starting the reaction. […] Reactions were initiated by the addition 0.5 ng of purified protein. Following a ten minute incubation at 25° C., the reactions were washed four times with PBS containing 0.05% Tween-20. 100 µl of a monoclonal anti-phosphotyrosine antibody-peroxidase conjugate was diluted 1:10000 in PBS-Tween-20 and added to the wells for 30 minutes. Following four washes with PBS-Tween-20, 100 µl of 0-phenylenediamine Dihydrochloride in Phosphate-citrate buffer, containing urea hydrogen peroxide, was added to the wells for 7 minutes as a colorimetric substrate for the peroxidase. […] IC50 values for compound inhibition were calculated directly from graphs of optical density (arbitrary units) versus compound concentration following subtraction of blank values.
human VEGF receptor (VEGFR-2), sequence (P35968 786-1356): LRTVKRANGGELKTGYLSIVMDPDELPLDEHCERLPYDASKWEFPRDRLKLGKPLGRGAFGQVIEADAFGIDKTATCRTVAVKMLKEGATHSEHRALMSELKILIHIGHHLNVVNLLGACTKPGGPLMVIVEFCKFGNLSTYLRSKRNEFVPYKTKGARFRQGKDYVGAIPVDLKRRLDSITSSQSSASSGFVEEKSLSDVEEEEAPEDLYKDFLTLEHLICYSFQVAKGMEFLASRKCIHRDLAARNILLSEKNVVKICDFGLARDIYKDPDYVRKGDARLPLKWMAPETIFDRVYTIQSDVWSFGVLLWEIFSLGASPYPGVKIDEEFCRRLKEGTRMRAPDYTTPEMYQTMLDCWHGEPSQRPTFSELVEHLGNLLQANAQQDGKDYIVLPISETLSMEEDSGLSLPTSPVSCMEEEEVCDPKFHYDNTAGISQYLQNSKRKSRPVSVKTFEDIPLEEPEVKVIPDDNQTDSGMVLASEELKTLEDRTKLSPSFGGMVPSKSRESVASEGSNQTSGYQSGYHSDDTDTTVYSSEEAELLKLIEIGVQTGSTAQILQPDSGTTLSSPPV

A further test has as its target VEGFR1 (Homo sapiens (Human), UniProt P17948). Put plainly: Enzymic VEGFR1. It counts as biochemical.
The target of the next test is VEGFR2 (Homo sapiens (Human), UniProt P35968). Put plainly: VEGF Stimulated Ca++ Signal In Vitro (Cellular VEGFR2, FLIPR). Conditions: HUVEC, VEGF stimulation (5 ng/mL), intracellular calcium. The class given is cell-based. On the technique in general: Calcium flux is commonly read through the fluorescence of an indicator in the cells.
VEGFR2, sequence (P35968 20-1356): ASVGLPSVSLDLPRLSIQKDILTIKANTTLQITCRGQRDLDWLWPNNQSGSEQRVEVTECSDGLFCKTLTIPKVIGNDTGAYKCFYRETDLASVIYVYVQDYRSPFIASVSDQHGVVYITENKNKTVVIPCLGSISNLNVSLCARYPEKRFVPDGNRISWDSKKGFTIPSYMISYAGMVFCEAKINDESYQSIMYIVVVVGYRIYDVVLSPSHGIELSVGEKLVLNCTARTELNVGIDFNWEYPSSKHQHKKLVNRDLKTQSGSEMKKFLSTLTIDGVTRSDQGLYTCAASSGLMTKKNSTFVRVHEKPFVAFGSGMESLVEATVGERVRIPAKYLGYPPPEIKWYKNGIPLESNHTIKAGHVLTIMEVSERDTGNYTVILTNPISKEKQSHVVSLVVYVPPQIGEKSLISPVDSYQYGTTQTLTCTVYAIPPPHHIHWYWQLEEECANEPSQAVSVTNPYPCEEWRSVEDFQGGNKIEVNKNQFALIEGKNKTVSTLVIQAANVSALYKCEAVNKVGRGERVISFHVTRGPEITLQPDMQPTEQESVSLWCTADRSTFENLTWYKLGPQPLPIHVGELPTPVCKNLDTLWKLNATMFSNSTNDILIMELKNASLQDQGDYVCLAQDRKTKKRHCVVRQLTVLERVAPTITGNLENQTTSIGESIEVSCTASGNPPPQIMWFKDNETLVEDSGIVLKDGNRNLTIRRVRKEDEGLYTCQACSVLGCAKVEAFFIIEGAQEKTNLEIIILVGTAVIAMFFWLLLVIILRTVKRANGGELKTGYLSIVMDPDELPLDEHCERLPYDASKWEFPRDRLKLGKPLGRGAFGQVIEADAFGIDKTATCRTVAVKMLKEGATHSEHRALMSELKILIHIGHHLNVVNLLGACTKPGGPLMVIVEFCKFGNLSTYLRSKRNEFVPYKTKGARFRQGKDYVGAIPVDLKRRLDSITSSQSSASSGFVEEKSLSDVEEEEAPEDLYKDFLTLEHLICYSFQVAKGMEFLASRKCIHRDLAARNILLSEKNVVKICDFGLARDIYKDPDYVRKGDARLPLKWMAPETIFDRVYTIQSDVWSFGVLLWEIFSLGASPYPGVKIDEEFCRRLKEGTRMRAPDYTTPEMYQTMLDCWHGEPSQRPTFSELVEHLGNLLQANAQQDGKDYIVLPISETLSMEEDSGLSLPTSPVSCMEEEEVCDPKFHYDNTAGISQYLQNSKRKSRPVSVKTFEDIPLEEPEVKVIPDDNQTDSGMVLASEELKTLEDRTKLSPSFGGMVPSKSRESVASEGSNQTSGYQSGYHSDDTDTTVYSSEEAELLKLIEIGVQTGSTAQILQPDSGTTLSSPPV
For the next test, the target named is PDGFRβ (Homo sapiens (Human), UniProt P09619). The test can be described thus: Enzymic PDGFRβ. The class given is biochemical.
PDGFRβ, sequence (P09619 33-1106, species assumed): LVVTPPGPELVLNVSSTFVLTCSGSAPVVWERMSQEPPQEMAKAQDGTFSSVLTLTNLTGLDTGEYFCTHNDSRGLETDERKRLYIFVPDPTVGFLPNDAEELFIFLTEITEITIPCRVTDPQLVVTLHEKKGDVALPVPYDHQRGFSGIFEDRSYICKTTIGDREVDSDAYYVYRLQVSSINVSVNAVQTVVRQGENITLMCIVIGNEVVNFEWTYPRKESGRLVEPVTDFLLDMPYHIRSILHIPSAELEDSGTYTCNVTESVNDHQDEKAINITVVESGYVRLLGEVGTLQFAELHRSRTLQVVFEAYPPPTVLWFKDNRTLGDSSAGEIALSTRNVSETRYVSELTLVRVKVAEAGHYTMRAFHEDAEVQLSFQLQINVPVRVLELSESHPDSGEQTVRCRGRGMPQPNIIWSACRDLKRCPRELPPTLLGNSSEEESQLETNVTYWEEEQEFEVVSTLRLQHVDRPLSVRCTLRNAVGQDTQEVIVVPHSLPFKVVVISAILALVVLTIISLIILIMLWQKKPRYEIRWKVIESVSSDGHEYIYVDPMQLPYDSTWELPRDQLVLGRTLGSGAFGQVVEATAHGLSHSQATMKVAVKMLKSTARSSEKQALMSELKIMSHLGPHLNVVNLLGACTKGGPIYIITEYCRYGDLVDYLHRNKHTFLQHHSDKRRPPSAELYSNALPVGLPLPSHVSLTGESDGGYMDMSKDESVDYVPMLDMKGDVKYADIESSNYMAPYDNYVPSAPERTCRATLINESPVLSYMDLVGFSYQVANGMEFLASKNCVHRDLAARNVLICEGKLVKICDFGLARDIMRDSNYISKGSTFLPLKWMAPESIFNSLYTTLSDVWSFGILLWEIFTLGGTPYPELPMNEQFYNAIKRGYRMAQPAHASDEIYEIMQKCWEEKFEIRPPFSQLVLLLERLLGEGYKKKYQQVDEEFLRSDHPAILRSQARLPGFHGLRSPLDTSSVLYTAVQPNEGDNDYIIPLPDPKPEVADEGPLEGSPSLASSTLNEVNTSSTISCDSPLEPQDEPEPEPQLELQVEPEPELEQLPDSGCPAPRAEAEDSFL

VEGFR1, sequence (P17948 27-1338, species assumed): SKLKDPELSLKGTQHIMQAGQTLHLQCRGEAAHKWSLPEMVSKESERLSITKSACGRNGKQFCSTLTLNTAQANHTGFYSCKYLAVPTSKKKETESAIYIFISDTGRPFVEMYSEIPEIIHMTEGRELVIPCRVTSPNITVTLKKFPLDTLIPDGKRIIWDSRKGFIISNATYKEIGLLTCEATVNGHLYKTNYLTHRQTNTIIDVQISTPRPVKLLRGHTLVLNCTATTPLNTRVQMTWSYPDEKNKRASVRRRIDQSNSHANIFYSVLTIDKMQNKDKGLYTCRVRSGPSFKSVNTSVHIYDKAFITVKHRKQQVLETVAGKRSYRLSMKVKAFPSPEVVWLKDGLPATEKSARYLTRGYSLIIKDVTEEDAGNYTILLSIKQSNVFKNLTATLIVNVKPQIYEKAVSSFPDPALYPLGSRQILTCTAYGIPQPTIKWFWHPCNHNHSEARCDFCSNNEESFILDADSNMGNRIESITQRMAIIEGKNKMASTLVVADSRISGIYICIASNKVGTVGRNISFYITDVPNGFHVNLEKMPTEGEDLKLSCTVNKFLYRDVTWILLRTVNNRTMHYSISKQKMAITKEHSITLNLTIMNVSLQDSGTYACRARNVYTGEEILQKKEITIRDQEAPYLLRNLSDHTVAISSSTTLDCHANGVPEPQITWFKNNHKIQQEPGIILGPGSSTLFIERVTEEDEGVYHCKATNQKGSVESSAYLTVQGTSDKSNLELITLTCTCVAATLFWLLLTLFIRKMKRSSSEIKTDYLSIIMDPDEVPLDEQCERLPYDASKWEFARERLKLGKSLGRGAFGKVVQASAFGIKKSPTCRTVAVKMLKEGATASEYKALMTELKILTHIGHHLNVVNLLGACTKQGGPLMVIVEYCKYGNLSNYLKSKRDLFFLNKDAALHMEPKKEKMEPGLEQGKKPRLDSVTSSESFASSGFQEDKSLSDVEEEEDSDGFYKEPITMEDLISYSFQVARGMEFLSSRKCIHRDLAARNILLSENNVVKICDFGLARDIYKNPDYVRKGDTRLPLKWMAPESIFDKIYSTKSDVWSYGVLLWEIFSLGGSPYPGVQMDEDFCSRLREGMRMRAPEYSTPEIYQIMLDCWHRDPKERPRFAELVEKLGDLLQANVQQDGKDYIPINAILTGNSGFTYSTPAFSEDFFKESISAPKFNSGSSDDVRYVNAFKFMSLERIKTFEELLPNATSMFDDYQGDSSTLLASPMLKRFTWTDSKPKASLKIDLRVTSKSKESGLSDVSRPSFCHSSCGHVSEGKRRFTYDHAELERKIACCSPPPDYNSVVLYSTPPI

As usually defined, the IC50 is the concentration at which inhibition is half-maximal. Take `Cc1ccc(F)c(NC(=O)Nc2ccc(Oc3ccnc4cc(C(=O)NCCCc5nn[nH]n5)sc34)cc2)c1` [Example 12, 7-[4-({[(2-fluoro-5-methylphenyl)amino]carbonyl}amino)phenoxy]-N-[3-(2H-tetrazol-5-yl)propyl]thieno[3,2-b]pyridine-2-carboxamide]: the concentration for half-maximal inhibition (IC50) in test [1] amounted to 3 nM; at VEGFR1, 4 nM; on VEGFR2, 126 nM; on PDGFRβ, 20 nM.

`Cc1ccc(F)c(NC(=O)Nc2ccc(Oc3ccnc4cc(C(=O)NCCc5nn[nH]n5)sc34)cc2)c1` [Example 13, 7-[4-({[(2-fluoro-5-methylphenyl)amino]carbonyl}amino)phenoxy]-N-[2-(2H-tetrazol-5-yl)ethyl]thieno[3,2-b]pyridine-2-carboxamide]: the 50% inhibitory concentration (IC50) turned out to be 6 nM in test [1], 10 nM at VEGFR1, 97 nM on VEGFR2 and 19 nM at PDGFRβ.

As to `CCOC(=O)CN1CCN(CCCNC(=O)c2cc3nccc(Oc4ccc(NC(=O)Nc5cc(C)ccc5F)cc4)c3s2)CC1` [Example 14, ethyl (4-{3-[({7-[4-({[(2-fluoro-5-methylphenyl)amino]carbonyl}amino)phenoxy]thieno[3,2-b]pyridin-2-yl}carbonyl)amino]propyl}piperazin-1-yl)acetate], the IC50 turned out to be 4 nM in test [1], 5 nM against VEGFR1, 34 nM at VEGFR2 and 13 nM against PDGFRβ.

Take `Cc1ccc(F)c(NC(=O)Nc2ccc(Oc3ccnc4cc(C(=O)NCCCN5CCCC(CO)C5)sc34)cc2)c1` (stereo not shown) [Example 15, 7-[4-({[(2-fluoro-5-methylphenyl)amino]carbonyl}amino)phenoxy]-N-{3-[3-(hydroxymethyl)piperidin-1-yl]propyl}thieno[3,2-b]pyridine-2-carboxamide]: the IC50 was 3 nM in test [1], 3 nM against VEGFR1, 39 nM on VEGFR2 and 10 nM against PDGFRβ.

With `COC(=O)CN(CCCNC(=O)c1cc2nccc(Oc3ccc(NC(=O)Nc4cc(C)ccc4F)cc3)c2s1)CC(=O)OC` [Example 19, dimethyl 2,2′-({3-[({7-[4-({[(2-fluoro-5-methylphenyl)amino]carbonyl}amino)phenoxy]thieno[3,2-b]pyridin-2-yl}carbonyl)amino]propyl}imino)diacetate], the half-inhibitory concentration (IC50) in test [1] turned out to be 4 nM; against VEGFR1, 9 nM; on VEGFR2, 0.3 nM; against PDGFRβ, 14 nM.

As to `CCOC(=O)N1CCN(CCNC(=O)c2cc3nccc(Oc4ccc(NC(=O)Nc5cc(C)ccc5F)c(F)c4)c3s2)CC1` [Example 23, ethyl 4-{2-[({7-[3-fluoro-4-({[(2-fluoro-5-methylphenyl)amino]carbonyl}amino)phenoxy]thieno[3,2-b]pyridin-2-yl}carbonyl)amino]ethyl}piperazine-1-carboxylate], the IC50 in test [1] was found to be 7 nM; against VEGFR1, 13 nM; on VEGFR2, 9 nM; against PDGFRβ, 14 nM.

As to `CCOC(=O)CN1CCN(C(=O)CN2CCN(C(=O)c3cc4nccc(Oc5ccc(NC(=O)Nc6cc(C)ccc6F)c(F)c5)c4s3)CC2)CC1` [Example 29, ethyl (4-{[4-({7-[3-fluoro-4-({[(2-fluoro-5-methylphenyl)amino]carbonyl}amino)phenoxy]thieno[3,2-b]pyridin-2-yl}carbonyl)piperazin-1-yl]acetyl}piperazin-1-yl)acetate], the half-maximal inhibitory concentration (IC50) was found to be 5 nM in test [1], 10 nM at VEGFR1 and 13 nM at PDGFRβ.

Take `CCOC(=O)CN1CCN(C(=O)c2cc3nccc(Oc4ccc(NC(=O)Nc5cc(C)ccc5F)c(F)c4)c3s2)CC1` [Example 30, ethyl [4-({7-[3-fluoro-4-({[(2-fluoro-5-methylphenyl)amino]carbonyl}amino)phenoxy]thieno[3,2-b]pyridin-2-yl}carbonyl)piperazin-1-yl]acetate]: the half-inhibitory concentration (IC50) in test [1] was 7 nM; on VEGFR1, 112 nM; at PDGFRβ, 17 nM.

As to `COC(=O)CNCCNC(=O)c1cc2nccc(Oc3ccc(NC(=O)Nc4cc(C)ccc4F)c(F)c3)c2s1` [Example 31, methyl ({2-[({7-[3-fluoro-4-({[(2-fluoro-5-methylphenyl)amino]carbonyl}amino)phenoxy]thieno[3,2-b]pyridin-2-yl}carbonyl)amino]ethyl}amino)acetate], the IC50 in test [1] amounted to 9 nM; at VEGFR1, 9 nM; at PDGFRβ, 13 nM.

Take `Cc1ccc(F)c(NC(=O)Nc2ccc(Oc3ccnc4cc(C(=O)NCCN)sc34)cc2F)c1` [Example 32, N-(2-aminoethyl)-7-[3-fluoro-4-({[(2-fluoro-5-methylphenyl)amino]carbonyl}amino)phenoxy]thieno[3,2-b]pyridine-2-carboxamide]: the IC50 in test [1] came out at 4 nM; on VEGFR1, 11 nM; against PDGFRβ, 15 nM.

Turning to `Cc1ccc(F)c(NC(=O)Nc2ccc(Oc3ccnc4cc(C(=O)NCCNC(=O)OC(C)(C)C)sc34)cc2F)c1` [Example 33], the figures for the 50% inhibitory concentration (IC50) (in test [1]; against VEGFR1; on PDGFRβ) were 24 nM, 60 nM and 69 nM, respectively.

Take `Cc1ccc(F)c(NC(=O)Nc2ccc(Oc3ccnc4cc(C(=O)NCCCN5CCN(C)CC5)sc34)cc2F)c1` [Example 34, 7-[3-fluoro-4-({[(2-fluoro-5-methylphenyl)amino]carbonyl}amino)phenoxy]-N-[3-(4-methylpiperazin-1-yl)propyl]thieno[3,2-b]pyridine-2-carboxamide]: the concentration for half-maximal inhibition (IC50) amounted to 3 nM in test [1], 6 nM at VEGFR1 and 11 nM against PDGFRβ.

For the compound `Cc1ccc(F)c(NC(=O)Nc2ccc(Oc3ccnc4cc(C(=O)NCCCN5CCOC(CO)C5)sc34)cc2F)c1` (stereo not shown) [Example 37, 7-[3-fluoro-4-({[(2-fluoro-5-methylphenyl)amino]carbonyl}amino)phenoxy]-N-{3-[2-(hydroxymethyl)morpholin-4-yl]propyl}thieno[3,2-b]pyridine-2-carboxamide], the IC50 came out at 7 nM in test [1], 9 nM against VEGFR1 and 1 nM at VEGFR2.

As to `Cc1ccc(F)c(NC(=O)Nc2ccc(Oc3ccnc4cc(C(=O)NCCCN5CCC(O)CC5)sc34)cc2F)c1` [Example 38, 7-[3-fluoro-4-({[(2-fluoro-5-methylphenyl)amino]carbonyl}amino)phenoxy]-N-[3-(4-hydroxypiperidin-1-yl)propyl]thieno[3,2-b]pyridine-2-carboxamide], the 50% inhibitory concentration (IC50) came out at 7 nM in test [1], 8 nM against VEGFR1 and 14 nM on VEGFR2.

As for `COC(=O)[C@@H]1C[C@@H](O)CN1CCCNC(=O)c1cc2nccc(Oc3ccc(NC(=O)Nc4cc(C)ccc4F)c(F)c3)c2s1` [Example 39, methyl (2S,4R)-1-{3-[({7-[3-fluoro-4-({[(2-fluoro-5-methylphenyl)amino]carbonyl}amino)phenoxy]thieno[3,2-b]pyridin-2-yl}carbonyl)amino]propyl}-4-hydroxypyrrolidine-2-carboxylate], the IC50 in test [1] is 5 nM; against VEGFR1, 8 nM; on VEGFR2, 2 nM.

Consider `Cc1ccc(F)c(NC(=O)Nc2ccc(Oc3ccnc4cc(C(=O)NCCCN5CCC(C(=O)O)C5)sc34)cc2F)c1` (stereo not shown) [Example 50, 1-{3-[({7-[3-fluoro-4-({[(2-fluoro-5-methylphenyl)amino]carbonyl}amino)phenoxy]thieno[3,2-b]pyridin-2-yl}carbonyl)amino]propyl}pyrrolidine-3-carboxylic acid], for which the half-inhibitory concentration (IC50) in test [1] was 16 nM; on VEGFR1 it was 18 nM; at VEGFR2, 80 nM.

`CCOC(=O)CCCNC(=O)c1cc2nccc(Oc3ccc(NC(=O)Nc4cc(C)ccc4F)c(F)c3)c2s1` [Example 57, ethyl 4-[({7-[3-fluoro-4-({[(2-fluoro-5-methylphenyl)amino]carbonyl}amino)phenoxy]thieno[3,2-b]pyridin-2-yl}carbonyl)amino]butanoate]: the half-maximal inhibitory concentration (IC50) in test [1] was determined as 14 nM; on VEGFR1, 15 nM; on VEGFR2, 1 nM.

For the compound `Cc1ccc(F)c(NC(=O)Nc2ccc(Oc3ccnc4cc(C(=O)NCCCC(=O)O)sc34)cc2)c1` [Example 65, 4-[({7-[4-({[(2-fluoro-5-methylphenyl)amino]carbonyl}amino)phenoxy]thieno[3,2-b]pyridin-2-yl}carbonyl)amino]butanoic acid], the figures for the IC50 (in test [1]; on VEGFR1; on VEGFR2) were 12 nM, 7 nM and 2 nM, respectively.

With `CCN(CC)CCNC(=O)c1cc2nccc(Oc3ccc(NC(=O)Nc4cc(C)ccc4F)cc3)c2s1` [Example 69, N-[2-(diethylamino)ethyl]-7-[4-({[(2-fluoro-5-methylphenyl)amino]carbonyl}amino)phenoxy]thieno[3,2-b]pyridine-2-carboxamide], the 50% inhibitory concentration (IC50) came to 4 nM in test [1], 5 nM at VEGFR1, 11 nM on VEGFR2 and 13 nM against PDGFRβ.
